Assay results as given in patent publication US20250057959A1, “PHOSPHANE GOLD(I)-N-HETEROCYCLIC CARBENE COMPLEXES FOR TREATING CANCER” (KING FAHD UNIVERSITY OF PETROLEUM AND MINERALS, priority 2023, published 2025).
“Also recorded” adds a separate entry of the source.

Legend:
[1] = tested on: A2780, A2780cis, and SKOV3 cells; assay: Cell cycle analysis (PI, flow cytometry), three OvCa lines; assay type: cell-based, human; settings: 24 hours, 0.15 μM and 0.5 μM
Method: 2.0×10^5/mL A2780 and A2780cis cells were seeded in 6-well plates in complete medium and treated with complex 6 (0.15 μM and 0.5 μM). Results were detected by flow cytometry on a BD FACSCanto II flow cytometer. Data were analyzed using BD FACSDiva version 8.0.1 software (BD Biosciences) unless otherwise indicated. To evaluate apoptosis, tumor cells were treated for 48 hours and then stained for 15 minutes with FITC annexin-V (Thermo Fisher Scientific) and 7AAD (BD Pharmingen). […] For B-cell lymphoma/leukemia-2 (Bcl-2) and Bcl-2 associated x protein (Bax) evaluation, cells were fixed and permeabilized using FIX & PERM cell fixation and cell permeabilization kit (Life Technologies). For ROS generation, cells were stained with 5 μM MitoSOX red mitochondrial superoxide indicator (ThermoFisher Scientific) in a working solution for 30 minutes at 37° C. Cell cycle analysis was performed after 24 hours treatment with complex 6. Cells were harvested, fixed in cold 70% ethanol for 15 minutes, and stained with propidium iodide (PI) solution ([…] PI, 0.1% NP-40, 100 µg/mL PureLink RNase A, 0.1% sodium citrate) for 1 hour. The distribution of cells in different cell cycle phases was quantified using ModFit LT 4.0 software (Verity Software House, Topsham, ME, USA).

SKOV3 cells [2] = assay: MTT cell viability assay, SKOV3; assay type: cell-based, human; settings: 72 hours treatment
Text: Human epithelial ovarian cancer A2780 cell line and its cisplatin-resistant clone A2780cis were obtained from Sigma-Aldrich (Milano, Italy). SKOV3 (HTB-77) cells were from the American Type Culture Collection (ATCC). The two cell lines were selected to reflect the two different stages of OvCa and different sensitivity to cisplatin. A2780 cell lines were derived from the ovarian tumor tissue of an untreated patient, while SKOV3 was from the ascitic fluids (after metastasis). Cells were authenticated in the laboratory using PowerPlex 16 HS system (Promega) and GeneMapper ID version 3.2.1 to identify DNA short tandem repeats. Cell lines were cultured in RPMI-1640 medium containing 10% fetal bovine serum (FBS) (Gibco, Thermo Fisher Scientific, U.S.A), 1% (v/v) of penicillin (10,000 units/mL)-streptomycin (10 mg/mL), and 1% (v/v) L-glutamine (200 mM) (all from Sigma- Aldrich) at 37° C. in a 5% CO2 fully humidified atmosphere. A2780cis cells were continuously exposed to 1 μM cisplatin to maintain cisplatin resistance. Adipose-derived stem cells (ADSCs) were purchased from Lonza and maintained in mesenchymal-stem-cell growth medium Bulletkit MSCGM (Lonza, Verviers, Belgium).
4.0×10^3/mL A2780, A2780cis, and SKOV3 cells were seeded in 96-well microplates in 100 μL of culture medium. Cells were allowed to adhere for 24 hours and then were treated in triplicate with increasing concentrations of gold compounds (0-1 μM). Cisplatin was included as a reference drug. Cell viability was evaluated using 3-(4,5-dimethylthiazol-2-yl)-2,5-diphenyltetrazolium bromide (MTT) assay (Sigma-Aldrich) after 72 hours of treatment. Half maximal inhibitory concentrations (IC50) were calculated using the CalcuSyn software version 2 (Biosoft, Ferguson, MO, USA). Fold resistance was calculated as the ratio of the IC50 of the A2780cis to that of the parental cell line A2780.

A2780 and A2780cis cells = assay: mitROS generation (MitoSOX red), flow cytometry; assay type: cell-based, human
Method: Results were detected by flow cytometry on a BD FACSCanto II flow cytometer. Data were analyzed using BD FACSDiva version 8.0.1 software (BD Biosciences) unless otherwise indicated. To evaluate apoptosis, tumor cells were treated for 48 hours and then stained for 15 minutes with FITC annexin-V (Thermo Fisher Scientific) and 7AAD (BD Pharmingen). […] For B-cell lymphoma/leukemia-2 (Bcl-2) and Bcl-2 associated x protein (Bax) evaluation, cells were fixed and permeabilized using FIX & PERM cell fixation and cell permeabilization kit (Life Technologies). […] The distribution of cells in different cell cycle phases was quantified using ModFit LT 4.0 software (Verity Software House, Topsham, ME, USA).

SKOV3-MCTSs = assay: SKOV3-MCTS spheroid volume; assay type: cell-based, human; settings: for SKOV3-MCTS volume decrease with respect to control: 0.5 μM
Method: To generate single spheroids with defined size, 1.0×10^3/mL SKOV3 cells were seeded 4 days under nonadherent conditions in U-bottom 96-well plates coated twice with 20 mg/mL of poly(2-hydroxyethyl methacrylate) (poly-HEMA; Sigma) in 95% ethanol. Spheroid size was measured at days 0, 3, and 7 after drug treatment initiation using an inverted microscope (Eclipse TS/100, Nikon, Tokyo, Japan) with photomicrographic systems DS camera control unit DS-L2. Spheroid volumes were calculated using the formula (width^2×length×3.14)/6.

20S proteasome = biological target: T1, 20S proteasome (Homo sapiens, UniProt P28074); assay: 20S proteasome activity in lysates of treated cells; assay type: cell-based; settings: OvCa cells treated 24 hours
T1 construct: endogenous in cells; host or cells: A2780, A2780cis and SKOV3 ovarian cancer cells, treated for 24 h and then lysed
Method: Proteasome activity (EC 3.4.25.1) was evaluated on the same cell lysates as TrxR using the 20S proteasome activity assay kit APT280 (Merck Millipore) and a computer-interfaced GeniusPlus microplate reader (Tecan Trading AG, Switzerland). The activity was normalized to the protein concentration and expressed as a percentage of control.

SKOV3 cells [3] = assay: Cytoskeleton organization, immunofluorescence confocal microscopy; assay type: cell-based, human; settings: 24 hours treatment
Method: Cell migration was assessed using the in vitro wound healing assay. Briefly, cells were grown to confluence and then treated with complex 6. After 24 hours of treatment, the medium was removed and cells were washed then scraped with a pipet tip to create a “wound” in the monolayer and washed again. Fresh medium containing 2% FCS was added. Wounds were photographed at times 0, 24, and 48 hours using an inverted microscope (EclipseTS/100, Nikon, Instruments Europe BV Amsterdam, The Netherlands) at magnification 4. Migration was assessed by measuring the cell-free area (in pixels) with ImageJ-NIH (National Institutes of Health) tool software. The cytoskeleton organization was evaluated by culturing SKOV3 cells onto glass coverslips and performing immunofluorescence staining for α-tubulin and F-actin. SKOV3 cells were treated for 24 hours with complex 6, fixed in 4% paraformaldehyde, permeabilized with 0.5% Triton X-100, and incubated overnight with primary antibody (Table 1) at 4° C. Primary antibody was detected using the appropriate secondary antibody together with phallotoxins (Molecular Probes) and TO-PRO-3 (Thermo Fisher Scientific). Images were acquired using an SP8 confocal microscope (Leica).

CC(C)c1cccc(C(C)C)c1-n1ccn(-c2c(C(C)C)cccc2C(C)C)[c]1=[Au+][PH](C1CCCCC1)(C1CCCCC1)C1CCCCC1.F[P-](F)(F)(F)(F)F [Complex 6, [Au(IPr)(C18H33P)] PF6]
Effect on cell cycle phases [1]: induced an accumulation in the G0/G1 phase of the cell cycle and a decrease in the S phases
IC50 (SKOV3 cells [2]): 580 nM
mitROS generation (A2780 and A2780cis cells): increased mitochondrial ROS (mitROS) generation in a dose-dependent manner
SKOV3-MCTS volume decrease with respect to control (SKOV3-MCTSs; 3 days): about 60%
SKOV3-MCTS volume decrease with respect to control (SKOV3-MCTSs; 7 days): about 75%
Effect on SKOV3-MCTSs at 1 μM (SKOV3-MCTSs; 1 μM): almost entirely diminished the SKOV3-MCTSs; also recorded: completely destroyed spheroids; also recorded: completely destroyed SKOV3-MCTSs
20S proteasome activity (20S proteasome): decreased the 20S proteasome activity in a dose-dependent manner
F-actin cytoskeleton organization (SKOV3 cells [3]): irregular disposition and organization of the F-actin cytoskeleton
α-tubulin distribution (SKOV3 cells [3]): did not modify α-tubulin distribution
